Measured values reported in PubChem BioAssay AID1963845 (Molecular Pharmacology Branch, DTP, NCI, 2024).

Test system: 429239-143-T-J1-PDC complex spheroid viability
Assay: Anticancer human tumor 429239-143-T-J1-PDC patient-derived small cell lung carcinoma cell line growth inhibition [POLQ]
Details: for IC50: curve of first compound; for viability, T/C: stronger effect = lower value
Experimental: Multicellular complex tumor spheroid response to Polymerase (POL) inhibitors (novobiocin, ART-558, RP6685) in combination with a variety of drugs and investigational agents in selected tumor cell lines
The POL inhibitors (novobiocin, ART-558, and RP6685) were evaluated both individually and in combination with standard of care and investigational anticancer small molecules within a complex spheroid model of solid tumors. . Complex spheroids include a stromal component modeled by human endothelial cells (HUVEC) and fibroblasts modeled by human mesenchymal stem cells (MSCs). The concentration ranges selected for each drug and investigational agent were based upon clinically achievable concentrations if the clinical Cmax of the agent was known.
Compounds. The drugs and investigational agents: novobiocin (NSC847541), ART-558 (NSC835418), RP-6685 (NSC848927), peposertib (NSC802822), ceralasertib (NSC780249), elimusertib (NSC800525), camonsertib (NSC841442), AZD-1390 (NSC803789), olaparib (NSC753686), talazoparib (NSC767125), rucaparib (NSC756644), sotorasib (NSC818433), MRTX-1133 (NSC836407), SN-38 (NSC673596), topotecan (NSC609699), epotoside (NSC141540), doxorubicin (NSC123127), gemcitabine (NSC613327), 5-fluorouracil (NSC19893), paclitaxel (NSC125973), vemurafenib (NSC761431), MSA-2 (NSC828583), SN-011 (NSC837082), adavosertib (NSC754352), prexasertib (NSC758257), carboplatin (NSC241240) and oxaliplatin (NSC266046), were obtained from the National Cancer Institute (NCI) Developmental Therapeutics Program Chemical Repository (21). The FDA-approved anticancer drug set is available from the Developmental Therapeutics Program at https://dtp.cancer.gov/organization/dscb/obtaining/. […] The stock solutions were prepared in dimethyl sulfoxide (DMSO, Sigma-Aldrich, St. Louis, MO, cat. D2650), except for the platinum compounds which were prepared in saline (Quality Biological, Gaithersburg, MD, cat. 114-055-101), at 800-fold the tested concentration and stored at -70 degrees C prior to their use. All drugs and investigational agents were tested over a range starting from a high concentration at or near the clinical Cmax and decreasing in half-log increments. If the clinical Cmax for an agent had not been determined, the highest concentration tested was 10 microM, except for SN-38, which was tested at a high concentration of 1 microM.
Cell Culture. All cells were maintained in an incubator at 37 degrees C and 5% CO2 with 95% humidity. The PDC lines were cultured according to standard operating procedures established by the NCI PDMR (https://pdmr.cancer.gov). Table 3 of the manuscript, lists the cell lines along with the number of the three cell types plated to form the mct-spheroids and media for tumor cell growth. After thawing, all PDC lines, except 997537-175-T-J1-PDC and 415267-285-R-J2-PDC, were cultured in Matrigel-coated flasks prepared with a working solution of 1X Ham's F-12 nutrient mix, without supplementation (Thermo Fisher Scientific, cat. 11765054), 100 U/mL penicillin-streptomycin (Thermo Fisher Scientific, cat. 15140122), and 2.5% Matrigel (Corning Inc., Corning, NY, cat. 354248) for the first three passages. The two PDC lines 997537-175-T-J1-PDC and 415267-285-R-J2-PDC were cultured on uncoated flasks. The 857933-349-R-J2-PDC line was cultured in 6C/Colon 1B media containing advanced DMEM/F-12 (Thermo Fisher Scientific, cat. 12634028), 10 mM HEPES (Thermo Fisher Scientific, cat. 15630080), 1X GlutaMAX supplement (Thermo Fisher Scientific, cat. 35050061), 0.1 mg/mL primocin (InvivoGen, San Diego, CA, cat. ant-pm-2), 10% defined fetal bovine serum, heat inactivated (HyClone Laboratories Inc., Logan, UT, cat. SH30070.03HI), 50% L-WRN conditioned media (ATCC, cat. CRL-3276), 1.25 mM N-Acetyl-L-cysteine (Sigma-Aldrich, cat. A9165), 10 mM nicotinamide (Sigma-Aldrich, cat. N0636), 1X B-27 supplement (Thermo Fisher Scientific, cat. 17504044), 1X N-2 supplement (Thermo Fisher Scientific, cat. […]

[1] = second compound 0.0316 µM, first compound 0.0316 µM
[2] = second compound 0.0316 µM, first compound 0.1 µM
[3] = second compound 0.0316 µM, first compound 0.316 µM
[4] = second compound 0.0316 µM, first compound 1 µM
[5] = second compound 0.0316 µM, first compound 3.16 µM
[6] = second compound 0.0316 µM, first compound 10 µM
[7] = second compound 0.1 µM, first compound 0.0316 µM
[8] = second compound 0.1 µM, first compound 0.1 µM
[9] = second compound 0.1 µM, first compound 0.316 µM
[10] = second compound 0.1 µM, first compound 1 µM
[11] = second compound 0.1 µM, first compound 3.16 µM
[12] = second compound 0.1 µM, first compound 10 µM
[13] = second compound 0.316 µM, first compound 0.0316 µM
[14] = second compound 0.316 µM, first compound 0.1 µM
[15] = second compound 0.316 µM, first compound 0.316 µM
[16] = second compound 0.316 µM, first compound 1 µM
[17] = second compound 0.316 µM, first compound 3.16 µM
[18] = second compound 0.316 µM, first compound 10 µM
[19] = second compound 1 µM, first compound 0.0316 µM
[20] = second compound 1 µM, first compound 0.1 µM
[21] = second compound 1 µM, first compound 0.316 µM
[22] = second compound 1 µM, first compound 1 µM
[23] = second compound 1 µM, first compound 3.16 µM
[24] = second compound 1 µM, first compound 10 µM
[25] = second compound 3.16 µM, first compound 0.0316 µM
[26] = second compound 3.16 µM, first compound 0.1 µM
[27] = second compound 3.16 µM, first compound 0.316 µM
[28] = second compound 3.16 µM, first compound 1 µM
[29] = second compound 3.16 µM, first compound 3.16 µM
[30] = second compound 3.16 µM, first compound 10 µM
[31] = second compound 10 µM, first compound 0.0316 µM
[32] = second compound 10 µM, first compound 0.1 µM
[33] = second compound 10 µM, first compound 0.316 µM
[34] = second compound 10 µM, first compound 1 µM
[35] = second compound 10 µM, first compound 3.16 µM
[36] = second compound 10 µM, first compound 10 µM
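Note: luminescence signal used as surrogate measure of viable cells; spheroids exposed to compounds for seven days before readout.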
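Throughout, for viability, T/C: 100% = DMSO vehicle control viability as luminescence relative to vehicle.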

C=CC(=O)N1CCN(c2nc(=O)n(-c3c(C)ccnc3C(C)C)c3nc(-c4c(O)cccc4F)c(F)cc23)C(C)C1 (stereo unspecified) + Cc1cccc(N(C)C(=O)C2C(O)CCN2c2nc(C)cc(C(F)(F)F)c2C#N)c1
IC50 (second compound 0.0316 µM): > 10 µM | IC50 (second compound 0.1 µM): > 10 µM | IC50 (second compound 0.316 µM): > 10 µM | IC50 (second compound 1 µM): > 10 µM | IC50 (second compound 3.16 µM): > 10 µM | IC50 (second compound 10 µM): > 10 µM | viability, T/C [1]: 97.2% | viability, T/C [2]: 85% | viability, T/C [3]: 102% | viability, T/C [4]: 97.5% | viability, T/C [5]: 96% | viability, T/C [6]: 98.7% | viability, T/C [7]: 93.2% | viability, T/C [8]: 96.8% | viability, T/C [9]: 108% | viability, T/C [10]: 89.8% | viability, T/C [11]: 92.9% | viability, T/C [12]: 109% | viability, T/C [13]: 105% | viability, T/C [14]: 94.3% | viability, T/C [15]: 107% | viability, T/C [16]: 97.8% | viability, T/C [17]: 108% | viability, T/C [18]: 116% | viability, T/C [19]: 88.8% | viability, T/C [20]: 93.4% | viability, T/C [21]: 104% | viability, T/C [22]: 88.5% | viability, T/C [23]: 103% | viability, T/C [24]: 104% | viability, T/C [25]: 95.5% | viability, T/C [26]: 88% | viability, T/C [27]: 86.6% | viability, T/C [28]: 101% | viability, T/C [29]: 104% | viability, T/C [30]: 122% | viability, T/C [31]: 98.8% | viability, T/C [32]: 85.3% | viability, T/C [33]: 94.4% | viability, T/C [34]: 97.9% | viability, T/C [35]: 102% | viability, T/C [36]: 100%

CC1COCCN1c1cc(C2(O)CC3CCC(C2)O3)c2cnn(-c3ccn[nH]3)c2n1 (stereo unspecified) + Cc1cccc(N(C)C(=O)C2C(O)CCN2c2nc(C)cc(C(F)(F)F)c2C#N)c1
IC50 (second compound 0.0316 µM): 0.0672 µM | IC50 (second compound 0.1 µM): 0.0668 µM | IC50 (second compound 0.316 µM): 0.0617 µM | IC50 (second compound 1 µM): 0.071 µM | IC50 (second compound 3.16 µM): 0.0478 µM | IC50 (second compound 10 µM): 0.063 µM | viability, T/C [1]: 76.8% | viability, T/C [2]: 35.8% | viability, T/C [3]: 17.6% | viability, T/C [4]: 10.3% | viability, T/C [5]: 7.41% | viability, T/C [6]: 5.4% | viability, T/C [7]: 69.6% | viability, T/C [8]: 39.6% | viability, T/C [9]: 19.3% | viability, T/C [10]: 11.8% | viability, T/C [11]: 7.54% | viability, T/C [12]: 5.93% | viability, T/C [13]: 62.1% | viability, T/C [14]: 41.3% | viability, T/C [15]: 16.2% | viability, T/C [16]: 9.23% | viability, T/C [17]: 9.02% | viability, T/C [18]: 5.86% | viability, T/C [19]: 73.8% | viability, T/C [20]: 40% | viability, T/C [21]: 17.7% | viability, T/C [22]: 9.58% | viability, T/C [23]: 8.48% | viability, T/C [24]: 5.82% | viability, T/C [25]: 60.1% | viability, T/C [26]: 31.8% | viability, T/C [27]: 17.9% | viability, T/C [28]: 10.3% | viability, T/C [29]: 8.26% | viability, T/C [30]: 6.08% | viability, T/C [31]: 63% | viability, T/C [32]: 41.5% | viability, T/C [33]: 18.5% | viability, T/C [34]: 10.8% | viability, T/C [35]: 9.19% | viability, T/C [36]: 5.28%

CCc1cc2c(N3CCc4c(cc(Cn5ccnc5)cc4-c4cn(C)nc4C(F)(F)F)C3=O)ccnc2c(OC)n1 + Cc1cccc(N(C)C(=O)C2C(O)CCN2c2nc(C)cc(C(F)(F)F)c2C#N)c1
IC50 (second compound 0.0316 µM): > 10 µM | IC50 (second compound 0.1 µM): > 10 µM | IC50 (second compound 0.316 µM): > 10 µM | IC50 (second compound 1 µM): > 10 µM | IC50 (second compound 3.16 µM): > 10 µM | IC50 (second compound 10 µM): 8.42 µM | viability, T/C [1]: 117% | viability, T/C [2]: 102% | viability, T/C [3]: 98.2% | viability, T/C [4]: 88.4% | viability, T/C [5]: 85.3% | viability, T/C [6]: 49.8% | viability, T/C [7]: 103% | viability, T/C [8]: 113% | viability, T/C [9]: 93.2% | viability, T/C [10]: 89.1% | viability, T/C [11]: 85.7% | viability, T/C [12]: 57.6% | viability, T/C [13]: 116% | viability, T/C [14]: 97.8% | viability, T/C [15]: 96.8% | viability, T/C [16]: 86% | viability, T/C [17]: 78.3% | viability, T/C [18]: 56.6% | viability, T/C [19]: 107% | viability, T/C [20]: 95.4% | viability, T/C [21]: 89.2% | viability, T/C [22]: 87.8% | viability, T/C [23]: 86.7% | viability, T/C [24]: 56.6% | viability, T/C [25]: 104% | viability, T/C [26]: 108% | viability, T/C [27]: 96.5% | viability, T/C [28]: 95.6% | viability, T/C [29]: 77.7% | viability, T/C [30]: 50.8% | viability, T/C [31]: 111% | viability, T/C [32]: 91.8% | viability, T/C [33]: 104% | viability, T/C [34]: 96.5% | viability, T/C [35]: 72.2% | viability, T/C [36]: 46.1%
